The results in this text go back to patent US20100204324A1, “Optically Active N-(Alpha-Mercaptopropionyl)Glycine” (priority 2007, published 2010).

Assay type in all cases: in vivo
Data set [1] in a line: Pharmacokinetic test in the body of a test animal, plasma drug concentration by HPLC-MS (interconversion of enantiomers). The note with it: each time point after administration, GITC derivatization. The source says: It is found from pharmacokinetic experiment that, conversion of R-(−)-N-(α-mercaptopropionyl)glycine and S-(+)-N-(α-mercaptopropionyl)glycine to each other have not occurred in body. The specific experiment is a pharmacokinetic test in the body of a test animal, including determining the plasma drug concentration with high-performance liquid chromatography-mass spectrometry (HPLC-MS).
The process for treat a plasma sample to formulate an injected solution includes plasma acidification, extraction, and then derivatization, and is as follows: […]
ionization mode: electrospray ionization; selective ion detection; curved desolvation line (CDL); temperature: 200° C.-300° C., with 250° C. being preferred; heating block temperature: 150° C.-250° C., with 200° C. being preferred; CDL voltage: 20V-30V, with 25V being preferred; detection voltage: +1.2 kV-+1.8 kV, with +1.50 kV being preferred; flow rate of atomizing gas: 1.2 L/min-1.8 L/min, with 1.5 L/min being preferred; flow rate of drying gas: 1.5 L/min-2.5 L/min, with 2.0 L/min being preferred; detected ion: derivative of test drug [M+Na]+(m/z): 575.20; internal standard: derivative of N-isobutanoyl-D-cysteine (NIDC) [M+Na]+(m/z): 603.05; […]

The subject of data set [2] is mice with liver injury induced by acetamidophenol. Description: Liver injury in mice induced by acetamidophenol, drugs by intravenous injection: serum biochemical indicators and liver indexes. Particulars: for Liver albumin / Liver total protein / GSH: 10% liver homogenate; for Liver albumin / Liver total protein / Liver coefficient / Serum total protein / mice dead after modeling / GSH / MDA: mice, drug 800 mg/kg iv; for Liver coefficient / Serum total protein: acetamidophenol 400 mg/kg ip, 24 hours after modeling; for mice dead after modeling: acetamidophenol model; for GSH / MDA: liver. The method, then:
The animals were randomly divided into the following 5 groups of 10 animals according to weight: solvent control group, model group (acetamidophenol, 400 mg/kg, ml/kg, intraperitoneal injection), tiopronin group (MPG), R-(−)-N-(α-mercaptopropionyl)glycine group, and S-(+)-N-(α-mercaptopropionyl)glycine group. After fasting for 12 h, except the solvent control group and model group were given saline by intravenous injection, the other test groups were intravenously injected drugs, and then intraperitoneally injected 400/mg/kg of acetamidophenol immediately, to induce acute liver cell injury. The animals were fed with food at 6 hours after modeling, and then fasted for 16 hours; and at 24 hours after modeling, blood were sampled by eye ball removal, centrifuged, and collected for serum. ALT, and AST were determined following the method of the kit. 10% of liver homogenate was prepared, to measure GSH. The liver and spleen were taken at the same time, weighted, and calculated for organcoefficient.

In data set [3] the test system is rats with liver injury induced by CCl4. Nature of the data set: Protection against liver injury in rats induced by carbon tetrachloride, drugs given intragastrically. Particulars: CCl4 model, drug 450 mg/kg ig; for Albumin / Globulin / Total protein: serum; for A/G: serum albumin/globulin. As for the experimental part:
The animals were randomly divided into the following 5 groups of 10 animals according to weight: solvent control group, model group (50% CCl4, 2 ml/kg, intraperitoneal injection), tiopronin group (MPG), R-(−)-N-(α-mercaptopropionyl)glycine group, and S-(+)-N-(α-mercaptopropionyl)glycine group. Except the solvent control group was given olive oil by intraperitoneal injection, the other test groups were intragastrically administrated drugs for 4 days, once daily, intraperitoneally injected CCl4 once on the fifth day to induce acute liver cell injury, treated with drugs 30 min before modeling (except for the model control group), and then administrated drugs once 2 hours after modeling. Then, the animals were fasted for 16 h, blood was sampled from retrobulbar venous plexus 24 hours after injecting CCl4, centrifuged, and collected for serum, and ALT, AST, albumin were determined following the method of the kit. The left lobe of liver was taken to prepare 10% of liver homogenate and measure GSH and MDA contents.

Where [4] appears, read: listed as S—H—N-(α-mercaptopropionyl)glycine.

Each structure is given as a SMILES string.

Turning to `C[C@@H](S)C(=O)NCC(=O)O` [R-(−)-N-(α-mercaptopropionyl)glycine], the “presence of the other enantiomer in plasma spectrogram after individual administration (conversion in body)” value in data set [1] was “not obviously detected”. Also, in data set [2], the Liver albumin was determined as 9.2 ± 1.3 mg/mL, the Liver total protein was 16.5 ± 1.7 mg/mL, the Liver coefficient turned out to be 5.816 ± 0.613 mg/g and the Serum total protein turned out to be 43.8 ± 7.4 mg/mL. In data set [2], the “mice dead after modeling” value is reported as “no death”. For the same molecule, the “protection against liver injury in mice induced by acetamidophenol” value in data set [2] (overall comparison with tiopronin group, 800 mg/kg iv) is “superior to that in tiopronin group”.

In data set [3], `CC(S)C(=O)NCC(=O)O` (stereo not drawn) [S-(+)-N-(α-mercaptopropionyl)glycine] had an Albumin of 27.5 ± 1.44 mg/mL, a Globulin of 37.2 ± 5.06 mg/mL and a Total protein of 64.7 ± 6.40 mg/mL. The “presence of the other enantiomer in plasma spectrogram after individual administration (conversion in body)” value in data set [1] is listed as “not obviously detected”. In data set [2], this molecule returned a Liver albumin of 9.1 ± 2.0 mg/mL, a Liver total protein of 16.2 ± 2.9 mg/mL, an MDA of 440.0 ± 134.6 nmol/g wet weight and a Liver coefficient of 6.201 ± 0.567 mg/g. The molecule also yielded a Serum total protein in data set [2] of 43.7 ± 5.7 mg/mL. Moreover, in data set [2] (setting [4]), the GSH result is listed as “no such effects” and the MDA entry was “no such effects”.

With `CC(S)C(=O)NCC(=O)O` (stereo not drawn) [Tiopronin, N-(α-mercaptopropionyl)glycine], in data set [3], the A/G turned out to be 0.825 ± 0.101, the Albumin came out at 26.8 ± 1.98 mg/mL, the Globulin amounted to 32.9 ± 4.79 mg/mL and the Total protein came to 59.8 ± 6.26 mg/mL. In addition, in data set [3] (listed as tiopronin), the A/G result is on record as “no obvious effect”, the Albumin entry is recorded as “no obvious effect”, the Globulin entry is reported as “no obvious effect” and the Total protein entry was “no obvious effect”. In data set [2], this molecule yielded a Liver albumin of 9.6 ± 1.1 mg/mL, a Liver total protein of 15.7 ± 1.4 mg/mL, an MDA of 362.4 ± 98.6 nmol/g wet weight and a Liver coefficient of 5.804 ± 0.598 mg/g. In addition, in data set [2], the “mice dead after modeling” value turned out to be 4. In data set [2] (listed as tiopronin), the GSH result was “no such effects” and the MDA entry is “no such effects”.
